Reference: patent publication US20060276468A1, “Wood preservative formulations comprising Imazalil” (priority 2005, published 2006)
Entries after “also recorded” stand apart in the source; their conditions may differ.

Tested on: decay organisms
Assay: soil contact veneer exposure test: dip-treated Scots pine sapwood veneers half buried in damp compost, pulled by hand weekly until failure
Settings: for half life, Low level with 0.8% Imazalil sulfate: 0.8% fungicide plus 0.8% imazalil sulfate, IMS; for average time for failure to occur, quat with Imazalil sulfate: 0.18% active quat plus 0.30% imazalil sulfate (Table 3; text b187 says 0.2%); for average time for failure to occur, Quat Only: 0.36% active quat in deionised water; for estimated expected half life for 1% fungicide plus 1% Imazalil sulfate / Half life for 1% fungicide plus 1% Imazalil sulfate / Half life for fungicide at 2% active ingredient (ai): Example 3; for synergy of the combination with imazalil sulfate: actual versus expected average time to failure; for average time for failure to occur (half life) / average time for failure to occur (half life), combination with imazalil sulfate / estimated expected average time for failure, combination with imazalil sulfate: Example 1; for average time for failure to occur (half life): biocide alone: 0.6% dichlorophen, 0.2% triclosan, 0.8% fenarimol, 0.8% PHMB, 0.4% imazalil sulfate, 6 veneers; for average time for failure to occur (half life), combination with imazalil sulfate: 0.3% dichlorophen, 0.1% triclosan, 0.4% fenarimol or 0.4% PHMB, each plus 0.2% imazalil sulfate; for estimated expected average time for failure, combination with imazalil sulfate: midway between the two single biocides; for half life, Low level with 0.8% Imazalil: 0.8% fungicide plus 0.8% imazalil
Excerpt: The present invention also provides a simple exposure test for evaluating the wood preserving abilities of candidate ingredients or compositions. This exposure test is based on the premise that small dimension timber test specimens tend to fail more quickly than larger ones in soil contact situations.
It is preferable that the thickness of the veneers be greater than 0.1 mm, as veneers of lesser thickness can often be pulled apart by hand without undergoing exposure to decay organisms. Veneers which are thicker than 0.4 may take an excessive amount of time to fail the exposure test. In one embodiment, the thickness of the veneers is about 0.2 mm and the wood is the sapwood of the Scots pine (Pinus sylvestris). Other woods and thicknesses can be used. […] An example of convenient width and length dimensions are 15×50 mm. However, width and length are not critical provided they are kept consistent within a test, although very large or small length or width dimensions may be difficult to handle.
Accordingly, the test of the present invention comprises testing the integrity of a veneer after exposure to a decay-inducing environment. In one embodiment, this environment is damp compost in which decay organisms are present and water is present at just above the water holding capacity of the compost. If desired, other media can be used, and the test can be conducted at water contents which are below, at, or above the water-holding capacity of the media.
In general, the integrity of the veneer is inversely related to the length of exposure to the decay promoting environment. The integrity of the veneer can be tested by applying a force to the veneer and noting whether or not the veneer breaks. Thus, if wood preservative agents are applied to the veneers, these veneers would be expected to withstand longer exposure to the environment without breaking compared to control veneers without breaking.
The force applied to the veneers is preferably a force which pulls the two ends in opposite directions. The force can be applied by the use of an instrument or manually. If there is significant decay the veneer will break, generally near the junction between the portion submerged in the decay accelerating medium and the portion exposed to air. If the force is applied manually, it is preferable that the same individual conduct the test at the various exposure time points.
The veneers were cut such that both late wood and early wood were present in each veneer. The following biocides were tested: imazalil sulfate, dichlorophen, fenarimol, triclosan, and PHMB. To allow the mixing together of the five selected biocides in any combination the biocides were formulated such that they could be mixed together (all the percentages are mass/mass):
Test solutions were prepared and sets of veneers were dip treated such that there were 6 replicate veneers for each treatment under investigation. Additionally six veneers were dip treated in deionised water to act as water controls. […] Plastic containers (approximately 350×220 mm by at least 60 mm high) were part filled with John Innes Number 2 potting compost at a little above its water holding capacity. The veneers for this particular test were placed in six rows within a container such that approximately half the veneer was below the compost and half above. The veneers were placed in the compost such than those given a particular treatment were distributed throughout the container and were not grouped together. The containers, compost and veneers were weighed then incubated at about 30° C. and near 100% relative humidity in an incubator. Each week during the test the assembly was reweighed and deionised water added to bring it back to its original mass. After 3 weeks each veneer was examined in turn. It was held between the fore finger and thumb at each end and pulled to see if it could be broken. If it could be pulled apart a failure was recorded.

[1] = Example 14, 0.6% dichlorophen or 0.4% imazalil sulfate alone
[2] = Example 15, 2.0% alone, solutions in IMS (alcohol)
[3] = Example 16, 0.8% alone, solutions in IMS (alcohol)
[4] = Example 16, 1.6% alone, solutions in IMS (alcohol)
[5] = unnumbered table, solutions in IMS
[6] = Example 8, solutions in IMS (alcohol)
[7] = Example 5, additive expectation
[8] = Example 5, solutions in acetone
[9] = Example 7, solutions in acetone
[10] = Example 10, additive expectation
[11] = Example 10, solutions in IMS (alcohol)

With `CCCCCCCCCC[N+](C)(C)CCCCCCCCCC.[Cl-]` [DDAC, didecyl dimethyl ammonium chloride] the “half life, Low level with 0.8% Imazalil sulfate” value was 5.50 weeks, the “average time for failure to occur, quat with Imazalil sulfate” value (Example 2) was 5.50 weeks and the “average time for failure to occur, Quat Only” value (Example 2) was 4.17 weeks. The “estimated expected half life for 1% fungicide plus 1% Imazalil sulfate” value (additive expectation) was 5.50 weeks, the “Half life for 1% fungicide plus 1% Imazalil sulfate” value (solutions in IMS (alcohol)) was 6.50 weeks and the “Half life for fungicide at 2% active ingredient (ai)” value (solutions in IMS (alcohol)) was 5.00 weeks. For the same molecule, the “synergy of the combination with imazalil sulfate” value (from here on “synergy of the combination”) was “evidence of synergy”, the “expected half life, Low level with 0.8% Imazalil sulfate” value (additive expectation) was “{5.58 weeks}” and the “half life, High level (1.6%)” value (solutions in IMS) was 5.33 weeks. For the same molecule, the “half life, Low level (0.8%)” value (solutions in IMS) was 5.00 weeks.
“1H-imidazole,1-(2-(2,4-dichlorophenyl)-2-(2-propenyloxy)ethyl)-, sulfate [Imazalil sulfate]” was tested, and the “average time for failure to occur (half life)” value was 5.17 weeks, the “average time for failure to occur, No Quat” value (Example 2, 0.60% imazalil sulfate alone (Table 3; text b187 says 0.4%)) was 5.67 weeks and the “Half life for fungicide at 2% active ingredient (ai)” value (solutions in IMS (alcohol)) was 6.00 weeks. For the same molecule, the “Half life for fungicide at 2% ai” value (Example 4, Table 8 title: solutions in acetone (Table 7: deionised water)) was 7.17 weeks, the “half life, No addition” value (Example 9, 1.4% BBIT or 0.4% imazalil sulfate alone, formulations which can be mixed together) was 5.50 weeks and the “Calculated half life” value (Example 12, Fluid 1, 0.25% imazalil sulfate in deionized water) was 5.00 weeks. The “Calculated half life” value (Example 12, Fluid 2, 0.50% imazalil sulfate in deionized water) was 6.50 weeks, the “Calculated half life” value (Example 12, Fluid 3, 1.00% imazalil sulfate in deionized water) was 6.83 weeks and the “Calculated half life” value (Example 12, Fluid 4, 1.50% imazalil sulfate in deionized water) was 8.17 weeks. For the same molecule, the “half life, No addition” value [1] was 5.2 weeks, the “half life, No addition” value [2] was 7.83 weeks and the Calculated half life [3] was 7.00 weeks. For the same molecule, the Calculated half life [4] was 8.00 weeks, the “half life, High level (1.6%)” value (solutions in IMS) was 5.83 weeks and the “half life, Low level (0.8%)” value (solutions in IMS) was 5.00 weeks. The “half life, High level (1.6%)” value [5] was 7.00 weeks and the “half life, Low level (0.8%)” value [5] was 5.67 weeks.
With “Poly(hexamethylenebiguanide)hydrochloride [PHMB]” the “average time for failure to occur (half life), combination with imazalil sulfate” value was 5.17 weeks, the “estimated expected average time for failure, combination with imazalil sulfate” value (additive expectation) was “(5.00) weeks” and the “average time for failure to occur (half life)” value was 4.83 weeks. The “synergy of the combination” value was “positive synergy”.
For `Oc1ccc(Cl)cc1Cc1cc(Cl)ccc1O` [Dichlorophen, 2,2′-methylenebis[4-chlorophenol]], the “average time for failure to occur (half life)” value was 9.50 weeks, the “estimated expected half life for 1% fungicide plus 1% Imazalil sulfate” value (additive expectation) was 12.92 weeks and the “Half life for 1% fungicide plus 1% Imazalil sulfate” value (solutions in IMS (alcohol)) was 15.33 weeks. For the same molecule, the “Half life for fungicide at 2% active ingredient (ai)” value (solutions in IMS (alcohol)) was 19.83 weeks, the “half life, With Imazalil sulfate” value (Example 14, 0.3% dichlorophen plus 0.2% imazalil sulfate) was 11.2 weeks and the “half life, No addition” value [1] was 9.5 weeks. The “expected half life, With Imazalil sulfate” value (Example 14, additive expectation) was “{7.4 weeks}”, the “half life, With Imazalil sulfate” value (Example 15, 1.0% dichlorophen plus 1.0% imazalil sulfate, IMS (alcohol)) was 19.67 weeks and the “half life, No addition” value [2] was 17.00 weeks. For the same molecule, the “expected half life, With Imazalil sulfate” value (Example 15, additive expectation) was “{12.42 weeks}”, the Calculated half life [3] was 11.33 weeks and the Calculated half life (Example 16, 0.8% dichlorophen plus 0.8% imazalil sulfate, IMS (alcohol)) was 13.00 weeks. For the same molecule, the expected half life (Example 16, 0.8% dichlorophen plus 0.8% imazalil sulfate, additive expectation) was “{11.25 weeks}”, the Calculated half life [4] was 14.50 weeks and the “synergy of the combination” value was “positive synergy; also recorded: exceeded the expected value”.
In the case of `Oc1cc(Cl)ccc1Oc1ccc(Cl)cc1Cl` [Trichlosan, 5-chloro-2-(2,4-dichlorophenoxy)phenol], the “average time for failure to occur (half life), combination with imazalil sulfate” value was 5.50 weeks, the “estimated expected average time for failure, combination with imazalil sulfate” value (additive expectation) was “(4.75) weeks” and the “average time for failure to occur (half life)” value was roughly 4.33 weeks. The “synergy of the combination” value was “positive synergy”.
With `CCCCCCCCCCCCN(CCCN)CCCN` [Triameen Y 12D-30, N,N-bis(3-aminopropyl)dodeclamine] the “estimated expected half life, Low level (0.8%) plus 0.8% Imazalil” value (Example 8, additive expectation) was “{5.75 weeks}”, the “half life, High level (1.6%)” value [6] was 5.00 weeks and the “half life, Low level (0.8%)” value [6] was 4.33 weeks. For the same molecule, the “half life, Low level (0.8%) plus 0.8% Imazalil” value [6] was 6.00 weeks.
With “alkyl dimethyl benzyl ammonium chloride [BAC]” the “estimated expected half life for 1% fungicide plus 1% Imazalil sulfate” value (additive expectation) was 5.59 weeks, the “Half life for 1% fungicide plus 1% Imazalil sulfate” value (solutions in IMS (alcohol)) was 6.17 weeks and the “Half life for fungicide at 2% active ingredient (ai)” value (solutions in IMS (alcohol)) was 5.17 weeks. The “half life, Low level with 0.8% Imazalil sulfate” value (unnumbered table) was 6.00 weeks, the “expected half life, Low level with 0.8% Imazalil sulfate” value (unnumbered table, additive expectation) was “{592 weeks}” and the “half life, High level (1.6%)” value [5] was 4.83 weeks. The “half life, Low level (0.8%)” value [5] was 4.67 weeks.
`N#Cc1c(Cl)c(Cl)c(Cl)c(C#N)c1Cl` [Chlorothalonil, tetrachloroisophthalonitrile] was tested, and the “estimated expected half life for 1% fungicide plus 1% Imazalil” value [7] was “{9.92 weeks}”, the “Half life for 1% fungicide plus 1% Imazalil” value [8] was 10.67 weeks and the “Half life for fungicide at 2% ai” value [8] was 12.17 weeks.
`CC(C1CC1)C(O)(Cn1cncn1)c1ccc(Cl)cc1` (stereo not drawn) [Cyproconazole, α-(4-chlorophenyl)-α-(1-cyclopropylethyl)-=1H-1,2,4-triazol-1-ethanol] was tested, and the “estimated expected half life, Low level (0.8%) plus 0.8% Imazalil” value (Example 7, additive expectation) was “{5.42 weeks}”, the “half life, High level (1.6%)” value [9] was 4.67 weeks and the “half life, Low level (0.8%)” value [9] was 4.17 weeks. For the same molecule, the “half life, Low level (0.8%) plus 0.8% Imazalil” value [9] was 6.17 weeks, the “half life, Low level with 0.8% Imazalil” value (Example 10, IMS (alcohol)) was 6.17 weeks and the “estimated expected half life, Low level with 0.8% Imazalil” value [10] was “(5.42 weeks)”. The “half life, High level (1.6%)” value [11] was 4.67 weeks and the “half life, Low level (0.8%)” value [11] was 4.17 weeks.
For `CC(Cc1ccc(C(C)(C)C)cc1)CN1C[C@@H](C)O[C@@H](C)C1` (mixture of isomers) [Fenpropimorph, (±)-cis-4-[3-(4-tert-butylphenyl)-2-methylpropyl]-2,6-dimethyl=morpholine], the “estimated expected half life for 1% fungicide plus 1% Imazalil sulfate” value (additive expectation) was 5.34 weeks, the “Half life for 1% fungicide plus 1% Imazalil sulfate” value (solutions in IMS (alcohol)) was 5.67 weeks and the “Half life for fungicide at 2% active ingredient (ai)” value (solutions in IMS (alcohol)) was 4.67 weeks. The “half life, Low level with 0.8% Imazalil” value (Example 10, IMS (alcohol)) was 5.83 weeks, the “estimated expected half life, Low level with 0.8% Imazalil” value [10] was “(5.17 weeks)” and the “half life, High level (1.6%)” value [11] was 4.17 weeks. The “half life, Low level (0.8%)” value [11] was 3.67 weeks.
`CCCCCCCCn1sc(Cl)c(Cl)c1=O` [RH 287, 4,5-dichloro-2-n-octyl-3(2H)-isothiazolone] was tested, and the “estimated expected half life for 1% fungicide plus 1% Imazalil” value [7] was “{15.09 weeks}”, the “Half life for 1% fungicide plus 1% Imazalil” value [8] was 19.33 weeks and the “Half life for fungicide at 2% ai” value [8] was 22.50 weeks.
For “N,N-didecyl-N-methyl-poly(oxethyl)ammonium propionate [Bardap 26]”, the “half life, Low level with 0.8% Imazalil sulfate” value was 4.83 weeks, the “average time for failure to occur, quat with Imazalil sulfate” value (Example 2) was 5.33 weeks and the “average time for failure to occur, Quat Only” value (Example 2) was 5.00 weeks. For the same molecule, the “estimated expected average time for failure, quat with Imazalil sulfate” value (Example 2, additive expectation) was 5.34 weeks, the “synergy of the combination” value was “approximates that predicted in the case of no synergy” and the “expected half life, Low level with 0.8% Imazalil sulfate” value (additive expectation) was “{5.50 weeks}”. For the same molecule, the “half life, High level (1.6%)” value (solutions in IMS) was 5.17 weeks and the “half life, Low level (0.8%)” value (solutions in IMS) was 4.67 weeks.
In the case of `OC(c1ccc(Cl)cc1)(c1cncnc1)c1ccccc1Cl` (racemic) [Fenarimol, (±)-2,4′-dichloro-α-(pyrimidin-5-yl)benzhydryl alcohol], the “half life, Low level with 0.8% Imazalil sulfate” value was 6.67 weeks, the “average time for failure to occur (half life), combination with imazalil sulfate” value was 6.67 weeks and the “estimated expected average time for failure, combination with imazalil sulfate” value (additive expectation) was “(6.17) weeks”. The “average time for failure to occur (half life)” value was 7.17 weeks, the “synergy of the combination” value was “positive synergy” and the “half life, High level (1.6%)” value (solutions in IMS) was 5.00 weeks. The “half life, Low level (0.8%)” value (solutions in IMS) was 4.50 weeks.
